Peptide text beside a SMILES is read from it.
Row | SMILES | logP
1 | CCOP(=S)(OCC)Oc1ccc(SC)cc1C | 4.16
2 | CCC(N)Cc1ccccc1 (stereo unspecified) | 2.28
3 | CCCCCCCCOC(N)=O | 2.84
4 | CCC(=O)OC1(C(=O)CBr)C(C)CC2C3CCC4=CC(=O)C=CC4(C)C3(F)C(=O)CC21C (stereo unspecified) | 3.55
5 | CC(=O)c1ccccc1C(=O)O | 0.81
6 | CC(=O)NC1CC(=O)N(c2ccccc2)C1=O (stereo unspecified) | -0.33
7 | CCN(CC)C(=O)C1C2CC3C(OC(=O)C31)C2O (stereo unspecified) | 0.15
8 | CCOP(=S)(OCC)O/N=C(\C#N)c1ccccc1 | 4.39
9 | O=[N+]([O-])c1ccsc1 | 1.55
10 | O=C1CCCCCCCCCCC1 | 4.1
11 | CCCCl | 2.04
12 | CC(C)C(=O)C(C)C | 1.86
13 | Cc1ccc2ncccc2c1 | 2.57
14 | NC(=O)c1ncn2c(=O)n(CCCl)nnc12 | -0.47
15 | S=C=NCCc1ccccc1 | 3.47
16 | O=C(O)Cc1cccc(O)c1 | 0.85
17 | O=C(CCn1cnc([N+](=O)[O-])n1)N1CCOCC1 | -0.74
18 | Cc1cccc(Cl)c1 | 3.28
19 | CCCCOC(=O)CNC(=O)CCCCSc1[nH]cnc2ncnc1-2 | 1.39
20 | ClC=C(Cl)Cl | 2.42
21 | Nc1c([N+](=O)[O-])cc(C(F)(F)F)cc1[N+](=O)[O-] | 2.29
22 | OCCCCc1ccccc1 | 2.35
23 | FC(F)(F)c1ccc(C(F)(F)F)cc1 | 3.83
24 | C#C[C@]1(O)CC[C@H]2[C@@H]3CCC4=CC(=O)CC[C@]4(C)[C@H]3CC[C@@]21C | 3.11

Row | SMILES | logP
25 | N#CCc1ccccc1 | 1.56
26 | CCCNC(=O)NS(=O)(=O)c1ccc(Cl)cc1 | 2.27
27 | CC(=O)c1ccccc1NCC#N | 1.58
28 | c1ccnnc1 | -0.72
29 | Cc1ncc([N+](=O)[O-])n1CC(C)O (stereo unspecified) | 0.22
30 | CCCCOCCOCCSC#N | 1.68
31 | CSc1cccc(N)c1 | 1.45
32 | COC1C(O)CC(OC2C(O)CC(OC3C(O)CC(OC4CCC5(C)C(CCC6C5CC(OC(C)=O)C5(C)C(C7=CC(=O)OC7)CCC65O)C4)OC3C)OC2C)OC1C (stereo unspecified) | 2.87
33 | CC1CN(N=O)CC(C)O1 (stereo unspecified) | 0.32
34 | O=[N+]([O-])C=Cc1ccoc1 | 1.41
35 | CNC(=O)Oc1cc(C)ccc1C | 2.03
36 | N#Cc1c[nH]c2ccccc12 | 2.32
37 | CC[C@H](C)[C@H](NC(C)=O)C(=O)N[C@H](C(N)=O)C(C)C (Ac-Ile-Val-NH2) | 0.16
38 | CCn1cnc([N+](=O)[O-])n1 | -0.19
39 | COC1CC(OC2CCC3(C)C(CCC4C3CCC3(C)C(C5=CC(=O)OC5)C(OC(C)=O)CC43O)C2)OC(C)C1O (stereo unspecified) | 2.53
40 | Nc1cc(Cl)c(Cl)c(Cl)c1 | 3.32
41 | CC1N=C(c2ccccc2)c2cc(Cl)ccc2NC1=O (stereo unspecified) | 3.33
42 | Brc1nc(Br)c(Br)[nH]1 | 1.96
43 | O=C(O)C=CC(=O)c1ccccc1 | 1.53
44 | CS(=O)(=O)CC#N | -1.42
45 | CCOC(=O)Oc1cccc2cccnc12 | 1.73
46 | NC(=O)N(CCCCCCN(N=O)C(N)=O)N=O | 0.58
47 | Cc1ccc(C=NO)cc1 | 2.4
48 | CCCNCc1cccnc1 | 0.9

Row | SMILES | logP
49 | COP(=O)(OC)C(O)C(Cl)(Cl)Cl (stereo unspecified) | 0.51
50 | CCCc1ncc([N+](=O)[O-])n1CCNC(=S)OC | 1.94
51 | CCNC(N)=O | -0.74
52 | CNC(=O)Oc1ccc(C(C)C)c(C)c1 | 3.11
53 | O=C(O)[C@@H]1CCCN1 | -2.54
54 | CCNc1ccccc1 | 2.16
55 | O=NN1CCC(Br)C(Br)C1 (stereo unspecified) | 1.23
56 | Cc1ccc(S(N)(=O)=O)cc1 | 0.82
57 | CC(C)C(Cl)C(=O)NC(N)=O (stereo unspecified) | 1
58 | Nc1ccc(C(=O)Oc2ccccc2Cl)c(O)c1 | 3.72
59 | CNC(=O)Oc1cccc(N(C)C)c1 | 1.43
60 | O=C1C=CC(=O)C(Cl)=C1 | 0.84
61 | O=C1C=C(Br)C(=O)c2ccccc21 | 2.44
62 | O=C(O)COc1ccc([N+](=O)[O-])cc1 | 1.48
63 | CN1CC[C@]23CCCC[C@H]2[C@H]1Cc1ccc(O)cc13 | 3.11
64 | OCc1cccs1 | 0.87
65 | Cc1ccccn1 | 1.11
66 | On1nc2ccccc2n1 | 0.69
67 | Cc1c(NC(=O)C(C)N(C)C)c(=O)n(-c2ccccc2)n1C (stereo unspecified) | -0.05
68 | Cc1cccc(Nc2ccccc2C(=O)O)c1C | 5.12
69 | CN(C)c1ccc2c(c1)C(=O)N(S(C)(=O)=O)C2=O | 1.65
70 | c1ccc(N=Nc2ccccc2)cc1 | 3.82
71 | Brc1ccccn1 | 1.42
72 | O=C(O)c1cccc(Cl)c1 | 2.68

Row | SMILES | logP
73 | CCCNc1ccccc1 | 2.45
74 | O=C(O)c1ccc2ccccc2c1 | 3.28
75 | CN(C)c1ccc2c(c1)C(=O)N(O)C2=O | 1.27
76 | O=C(Oc1ccc(N=C=S)cc1)c1ccccc1 | 4.9
77 | Cc1ccc(NS(=O)(=O)c2ccc(N)cc2)cc1 | 2.11
78 | CCCCCCc1ccc(C(=O)OCCN(C)C)cc1 | 5.2
79 | O=C(O)c1ccc(O)cc1O | 1.63
80 | O=[N+]([O-])c1cc2ccccc2[n+]([O-])c1 | 0.56
81 | CN(Cc1cnc2nc(N)nc(N)c2n1)c1c(Cl)cc(C(=O)N[C@@H](CCC(=O)O)C(=O)O)cc1Cl | -0.1
82 | CCCCOc1cccnn1 | 1.8
83 | CC(=O)N[C@@H](CC(C)C)C(=O)N[C@@H](CC(N)=O)C(N)=O | -1.3
84 | Clc1ccc(-c2cc(Cl)c(Cl)c(Cl)c2Cl)c(Cl)c1 | 7.44
85 | CC(C)OC(=O)C(C(=O)OC(C)C)=C1SCCS1=O (stereo unspecified) | 1.6
86 | CCOC(=O)C(C)NC(=O)CCCCSc1ncnc2nc[nH]c12 (stereo unspecified) | 1.51
87 | CN(C)c1nc(N(C)C)nc(N(C)C)n1 | 2.73
88 | Nc1cccc(Br)c1 | 2.1
89 | OCC(O)COc1ccccc1 (stereo unspecified) | 0.7
90 | CCC(NC(C)=O)C(=O)OC (stereo unspecified) | -0.17
91 | NC(=O)CF | -1.05
92 | CCOP(=S)(OCC)SCn1nnc2ccccc2c1=O | 3.4
93 | CC[C@H](C)[C@H](NC(=O)[C@@H](NC(C)=O)[C@@H](C)O)C(N)=O (Ac-Thr-Ile-NH2) | -0.86
94 | CCC(=O)c1ccc(O)cc1 | 2.03
95 | ClC(Cl)(Cl)Cl | 2.83
96 | CC(=O)c1ccc(N2CCCCC2)cc1 | 3.13

Row | SMILES | logP
97 | COC(=O)CCCO | -0.06
98 | O=C1c2ccccc2-c2ccccc21 | 3.58
99 | NCc1ccncc1 | -0.38
100 | C[N+](C)(C)c1ccccc1.[I-] | -2.74
101 | CC(=O)C(=Cc1ccccc1C)C(C)=O | 1.98
102 | Brc1cc(Br)c(Br)cc1Br | 5.13
103 | c1ccc(Nc2ccccc2)cc1 | 3.5
104 | CN=Cc1ccccc1 | 1.64
105 | CN(C)C(N(C)C)=S(I)c1cc(Cl)cc(Cl)c1 (stereo unspecified) | 0.52
106 | Oc1ccc(I)cc1 | 2.91
107 | O=[N+]([O-])c1ncn(CC(F)CO)n1 (stereo unspecified) | -0.8
108 | c1ccc2c(c1)ccc1c3ccc4ccccc4c3[nH]c21 | 6.4
109 | Oc1ccccc1F | 1.71
110 | Nc1ccc(Cl)cc1C(=O)O | 1.57
111 | FCF | 0.2
112 | CCOC(=O)C(=Cc1ccc(Cl)c(Cl)c1)C(C)=O | 3.92
113 | CCCCn1cc(C)c(=O)[nH]c1=O | 0.91
114 | CN(C)C(N(C)C)=S(I)c1ccccc1Cl (stereo unspecified) | -0.19
115 | NS(=O)(=O)c1ccc2ncccc2c1 | 0.56
116 | OC(O)C(Cl)(Cl)Cl | 0.99
117 | CCCC(C)O (stereo unspecified) | 1.19
118 | CNC(=S)N(C)C | 0.1
119 | COc1ccc(C(C#N)C(C)C)cc1 (stereo unspecified) | 2.68
120 | Brc1ccc(-c2cc3ccccn3c2)cc1 | 5.43

Row | SMILES | logP
121 | NC(=O)c1cccc(Br)c1 | 1.65
122 | O=CN1CCCC1 | -0.32
123 | O=S(=O)(Nc1ccc(-c2ccccc2)cc1)C(F)(F)F | 4.97
124 | O=C(NCc1ccccc1)c1ccco1 | 1.81
125 | CCN(CC)CCNC(=O)c1ccc(N)cc1 | 0.88
126 | CCCCC(O)CC (stereo unspecified) | 2.24
127 | COc1cccc2c1C(=N)c1c(O)c3c(c(O)c1C2=O)CC(O)(C(O)CO)CC3OC1CC(N2CCOCC2)C(O)C(C)O1 (stereo unspecified) | 1.43
128 | NS(=O)(=O)c1cc2c(cc1Br)NCNS2(=O)=O | 0.08
129 | CC(=O)Nc1ccccc1[N+](=O)[O-] | 1
130 | COC(=O)Cc1cccs1 | 1.51
131 | CN1CCN(CCCN2c3ccccc3Sc3ccc(C(F)(F)F)cc32)CC1 | 5.03
132 | NC(=O)CCc1ccncc1 | -0.25
133 | COP(=O)(OC)OC(=CCl)c1cc(Cl)c(Cl)cc1Cl | 3.53
134 | CC(=C(C#N)C#N)c1ccccc1 | 2.1
135 | CCCCCCOC(=O)c1cc(O)c(O)c(O)c1 | 3.17
136 | O=[N+]([O-])c1ccc2cccccc1-2 | 2.59
137 | CCC(C)=O | 0.29
138 | Nc1ccc(C(=O)O)c(F)c1 | 1.29
139 | NC(=O)Nc1ccc(Cl)cc1 | 1.8
140 | O=C1CCCCN1 | -0.46
141 | CON=C(C(=O)NC1C(=O)N2C(C(=O)OCOC(=O)C(C)(C)C)=C(CSc3nnnn3C)CSC12)c1csc(N)n1 (stereo unspecified) | 1.74
142 | O=C(NP(=O)(N1CC1)N1CC1)c1ccccc1Br | 1.08
143 | FC(F)(F)Oc1ccccc1 | 3.17
144 | O=[N+]([O-])c1cc(Cl)c(O)c(Cl)c1 | 2.94

Row | SMILES | logP
145 | Clc1nc(Cl)c(Cl)c(Cl)c1Cl | 3.53
146 | CCCc1ccc(S(N)(=O)=O)cc1 | 1.64
147 | CNc1ccccc1C | 2.16
148 | CC1CCC(NC(=O)N(CCCl)N=O)CC1 (stereo unspecified) | 3.3
149 | CCOc1ccc(CC(=O)O)cc1 | 1.95
150 | CNC(=O)Oc1ccccc1C(C)C | 2.31
151 | COc1cc(Cl)c(Cl)cc1O | 3.26
152 | CNC(=O)ON=C(C)SC | 0.6
153 | Cc1[nH]cnc1CSCCNc1ncc(Cc2ccc3c(c2)OCO3)c(=O)[nH]1 | 2.11
154 | NCCCCc1cccnc1 | 0.88
155 | COc1ccc(NC(=O)NN=Cc2ccc[nH]2)cc1 | 2.67
156 | Nc1ccccc1C(=O)O | 1.21
157 | CN(C)C(N(C)C)=S(I)c1ccc(S(=O)(=O)N(C)C)cc1 (stereo unspecified) | -0.81
158 | c1ccc2c(c1)COC2 | 1.76
159 | Cc1cccc(S(N)(=O)=O)c1 | 0.85
160 | CCCCCCCOC(N)=O | 2.36
161 | CCN(CC)C(C)=O | 0.34
162 | CC[C@H](C)[C@H](NC(=O)[C@H](CC(C)C)NC(C)=O)C(N)=O (Ac-Leu-Ile-NH2) | 0.68
163 | CCOc1cccc(Cl)n1 | 2.55
164 | COc1cc(S(C)=O)ccc1-c1nc2nnccc2[nH]1 (stereo unspecified) | 0.23
165 | S=C=Nc1ccccc1 | 3.28
166 | CCCOC(N)=O | 0.36

From the OPERA property sets (Mansouri et al. 2018)
